Experimental data published in US20080004694A1, “COMPOSITIONS AND METHODS FOR ADMINISTERING DEXAMETHASONE WHICH PROMOTE HUMAN CORONARY ARTERY ENDOTHELIAL CELL MIGRATION” (ABBOTT LABORATORIES, priority 2006, published 2008).
“Also recorded” adds a separate entry of the source.

Legend:
[1] = tested on: human coronary artery smooth muscle cells (hCaSMC); test: PDGF-BB induced hCaSMC migration after 24 h drug pretreatment; format: cell-based; conditions: 24 h pretreatment; PDGF-BB 25 ng/ml
Experimental: (§1) In acute studies, cells were collected, counted, and 200,000 hCaEC or 160,000 hCaSMC placed in the upper chambers of modified boyden chambers in 24 well plates (BD Biosciences). Plates contained microporous membranes of 3.0 and 8.0 um for hCaEC and hCaSMC, respectively. […] After migration, cells were stained with calcein-AM for 90 minutes and fluorescence determined using a plate reader capable of measuring fluorescence emitted by the bottom of the microporous filter.
Pre-exposure with the mTOR agent sirolimus has been reported to block rat aortic smooth muscle cell migration in response to S1P-1 and porcine aortic smooth muscle in response to PDGF-BB. […] In contrast to their inability to block serum-induced migration, zotarolimus, dexamethasone, and paclitaxel all inhibited migration in response to the single chemotactic agent PDGF-BB (25 ng/ml).

[2] = tested on: human coronary artery endothelial cells (hCaEC); test: hCaEC migration induced by full growth media after 24 h drug pretreatment; format: cell-based; conditions: for effect on full growth media induced hCaEC migration after drug pretreatment: 24 h pretreatment in full growth media, drug present during migration
Experimental: as §1
Migration of hCaEC was induced by full growth media and the effects of the drugs sirolimus, dexamethasone, zotarolimus, everolimus, and paclitaxel on hCaEC migration determined. Following pretreatment cells were counted and re-suspended in basal media containing drugs and migration initiated.

[3] = tested on: p70S6K (T389) phosphorylation in hCaSMC; test: Western blot of p70S6K (T389) phosphorylation in hCaSMC; format: cell-based, human; conditions: 300 nM drug, 36 hours, after 24 h synchronization
Experimental: To determine if inhibition of p70S6K was involved in serum-induced migration Western blot experiments were performed on hCaEC and hCaSMC treated using an experimental paradigm similar to those of the migration experiments. […] The effects of drug treatment on p70S6K T389 phosphorylation in hCaEC are illustrated in FIG. 6A-6B. […] Paclitaxel also reduces T389 phosphorylation though this effect is less than that of the mTOR antagonists.
Membranes were probed with a rabbit anti-phospho-p70S6K (T389) monoclonal antibody (Cell Signaling). […] Furthermore, the anti-migratory activity of the mTOR antagonists is not likely to contribute to their anti-restenotic activity. Conversely, paclitaxel is a potent anti-migratory agent and this effect is likely to contribute to the anti-restenotic activity.

pRb phosphorylation = test: pRb phosphorylation; format: cell-based
[4] = tested on: human coronary artery endothelial cells (hCaEC); test: hCaEC migration, modified Boyden chamber, acute drug exposure, induced by 5% FBS; format: cell-based; conditions: for effect on hCaEC migration: no pretreatment, 22 hour migration
Experimental: As such, EC and SMC migration in response to hFGF, HEGF, VEGF, R^3-IGF-1 and FBS or FBS alone was determined using a modified Boyden chamber.
When necessary, each cell type was passed at ˜75% confluence.
as §1

[5] = tested on: p70S6K (T389) phosphorylation in hCaEC; test: Western blot of p70S6K (T389) phosphorylation in hCaEC; format: cell-based, human; conditions: for effect on p70S6K T389 phosphorylation in hCaEC: 300 nM drug in growth media, 36 hours, after 24 h synchronization
Experimental: Human Coronary Endothelial Cells (hCaEC, Cambrex) were seeded on 100 mm plastic dishes (1-3×10^5 cells per dish) and incubated at 37° C. with 5% CO2 in complete growth media containing hFGF, HEGF, VEGF, R^3-IGF-1 and 5% FBS (GM). Cells were allowed to grow until dishes were 30-40% confluent. Cells were synchronized by incubation in basal media without supplements (BM) for 24 h. After synchronization the BM was replaced with GM containing test compounds, DMSO and BSA (Experimental dish: GM containing 300 nM test compounds, 0.1% BSA; Positive control: GM containing 0.1% BSA and 0.1% DMSO; Negative control: BM containing 0.1 or 0.5% FBS, 0.1% BSA and 0.1% DMSO).
Cells were incubated for 24 or 36 hours at 37° C. with 5% CO2. After which dishes were 50-70% confluent. Dishes were rinsed with warm PBS to remove excess FBS and than placed on ice. Whole cell lysates were prepared by adding 150-200 ul of RIPA lysis buffer at 4° C. (50 mM Tris HCl pH 8, 150 mM NaCl, 1% NP-40, 0.5% sodium deoxycholate, 0.1% SDS, 2 mM PMSF, 1 mM sodium orthovanadate, and protease inhibitor cocktail, Santa Cruz Biotechnology) to the culture dishes and collected by scrapping the plate surface with a cell scrapper. Lysates were transferred to 1 ml eppendorf tubes and incubated on ice with vortexing for 30 min. Samples were than centrifuged for 8 min at 10000 rpm. Supernatants were collected and transferred into new tubes and stored at −70° C.
The total protein concentration of the samples was determined by a modification of the method of Bradford (Quick Start Bradford Microplate Standard Assay, Bio-Rad) with bovine γ-globulin as a standard.
Total volume of the loaded sample was 45 ul containing 15 ul of 3× sample buffer (Laemmli Sample Buffer, Bio Rad), and sample (30 ul) containing 25 to 50 ug of protein. Samples were diluted to the same protein concentration. Samples were mixed and boiled at 98° C. for 3-4 minutes. Denaturated samples were separated in 4-15% gradient or 12% Ready Tris-HCl gels (Bio-Rad) in running buffer 25 mM Tris, pH 8.3, 192 mM glycine, 0.1% SDS at 150-180 V for 60-90 minutes and transferred to Hybond-ECL membrane (Amersham Biosciences) in 25 mM Tris, pH 8.3, 192 mM glycine, 20% methanol at 100 V for 1 hour.
Protein transfer to the membrane was verified by staining with Ponceau. Ponceau was removed by washing membranes 3 times for 5 minutes in TBS-T (10 mM Tris, pH 7.4, 150 mM NaCl, and 0.1% Tween 20). The membrane was blocked with a 3% solution of nonfat dry milk (Blotting-Grade Blocker, Bio-Rad) in TBS-T for 1 hour at room temperature. Membranes were then incubated with rabbit anti-phospho-p70S6K (T389) monoclonal antibody (Cell Signaling) 1:200 or 1:400 in 3% nonfat dry milk overnight at +4° C. and gently rocked. Goat polyclonal antibodies raised against the C-terminus of actin of human origin (Santa-Cruz Biotechnology) were used at a 1:800 dilution.
After overnight incubation with the primary antibody, membranes were washed with TBS-T 3 times for 5 minutes followed by incubation with the appropriate horseradish peroxidase linked secondary antibodies in 3% nonfat dry milk according to antibody supplier instructions. After one-hour incubation at room temperature with secondary antibodies the membrane was washed again using TBS-T, 3 times for 5 minutes and developed using ECL Plus (Amersham Biosciences). Images of the membranes were scanned and stored using a multi-channel scanning system FLA-5000 (FUJI Film). […]

[6] = tested on: human coronary artery endothelial cells (hCaEC); test: hCaEC migration in response to FBS after 24 h drug pretreatment; format: cell-based; conditions: 24 h pretreatment in growth media; migration to 5% FBS without growth factors; drug present
Experimental: as §1
To determine if growth factors contained in full growth media played a role in the inability of the mTOR antagonists (sirolimus or zotarolimus) or dexamethasone to inhibit migration, additional experiments were conducted to determine if drug pretreatment would affect migration induced by 5% FBS in the absence of growth factors. Migration in response to FBS following pretreatment of hCaEC with different concentrations of drugs was determined for the drugs sirolimus, dexamethasone, zotarolimus, and paclitaxel. To explore this effect in hCaEC, cells were synchronized, pretreated with drug in growth media for 24 hours, resuspended in basal media containing drug and migration in response to FBS determined. […] Dexamethasone promoted hCaEC migration.

[7] = tested on: human coronary artery smooth muscle cells (hCaSMC); test: hCaSMC migration in response to FBS alone after 24 h drug pretreatment; format: cell-based; conditions: 24 h pretreatment in growth media, drug present
Experimental: as §1
Another experiment was conducted to determine if growth factors contained in full growth media played a role in the inability of the mTOR antagonist zotarolimus or dexamethasone to inhibit human coronary artery smooth muscle cell (hCaSMC) migration. Migration in response to FBS following pretreatment of hCaSMC with different concentrations of drugs was determined for the drugs dexamethasone, zotarolimus, rapamycin, and paclitaxel. To explore this effect, hCaSMC were synchronized, pretreated with drug in growth media for 24 hours, resuspended in basal media containing drug and migration in response to FBS alone determined.

CO[C@H]1C[C@@H]2CC[C@@H](C)[C@@](O)(O2)C(=O)C(=O)N2CCCC[C@H]2C(=O)O[C@H]([C@H](C)C[C@@H]2CC[C@H](n3cnnn3)[C@H](OC)C2)CC(=O)[C@H](C)/C=C(\C)[C@@H](O)[C@@H](OC)C(=O)[C@H](C)C[C@H](C)/C=C/C=C/C=C/1C [zotarolimus]
effect on hCaSMC migration in response to PDGF-BB [1]: inhibited
effect on full growth media induced hCaEC migration after drug pretreatment [2]: only paclitaxel inhibits
effect on p70S6K T389 phosphorylation in hCaSMC [3]: completely inhibit
effect on pRb phosphorylation (pRb phosphorylation): reduces
effect on hCaEC migration [4]: no effect
effect on p70S6K T389 phosphorylation in hCaEC [5]: completely block; also recorded: inhibit
p70S6K T389 to actin ratio compared to growth controls (densitometry) ([5]; hCaEC, 300 nM drug): significant inhibition
effect on FBS-induced hCaEC migration after drug pretreatment [6]: did not significantly block
effect on FBS-induced hCaSMC migration after drug pretreatment [7]: did not significantly block

CC(=O)O[C@H]1C(=O)[C@@]2(C)[C@H]([C@H](OC(=O)c3ccccc3)[C@]3(O)C[C@H](OC(=O)[C@H](O)[C@@H](NC(=O)c4ccccc4)c4ccccc4)C(C)=C1C3(C)C)[C@]1(OC(C)=O)CO[C@@H]1C[C@@H]2O [paclitaxel]
effect on hCaSMC migration in response to PDGF-BB [1]: inhibited
effect on full growth media induced hCaEC migration after drug pretreatment [2]: inhibits
effect on migration of human coronary artery endothelial cells in vitro (summary statement) ([2]; in the presence of multiple growth factors and FBS): inhibits
effect on p70S6K T389 phosphorylation in hCaSMC [3]: reduces
anti-migratory potency in hCaEC compared to hCaSMC [4]: significantly greater
effect on p70S6K T389 phosphorylation in hCaEC [5]: inhibit
effect on p70S6K T389 phosphorylation in hCaEC ([5]; listed as Paclitaxel): reduces
effect on FBS-induced hCaEC migration after drug pretreatment [6]: significantly blocks
effect on FBS-induced hCaSMC migration after drug pretreatment [7]: significantly blocks

CO[C@H]1C[C@@H]2CC[C@@H](C)[C@@](O)(O2)C(=O)C(=O)N2CCCC[C@H]2C(=O)O[C@H]([C@H](C)C[C@@H]2CC[C@@H](O)[C@H](OC)C2)CC(=O)[C@H](C)/C=C(\C)[C@@H](O)[C@@H](OC)C(=O)[C@H](C)C[C@H](C)/C=C/C=C/C=C/1C [sirolimus]
effect on hCaEC migration [4]: no effect

CO[C@H]1C[C@@H]2CC[C@@H](C)[C@@](O)(O2)C(=O)C(=O)N2CCCC[C@H]2C(=O)O[C@H]([C@H](C)C[C@@H]2CC[C@@H](OCCO)[C@H](OC)C2)CC(=O)[C@H](C)/C=C(\C)[C@@H](O)[C@@H](OC)C(=O)[C@H](C)C[C@H](C)/C=C/C=C/C=C/1C [everolimus]
effect on full growth media induced hCaEC migration after drug pretreatment [2]: only paclitaxel inhibits

C[C@@H]1C[C@H]2[C@@H]3CCC4=CC(=O)C=C[C@]4(C)[C@@]3(F)[C@@H](O)C[C@]2(C)[C@@]1(O)C(=O)CO [dexamethasone]
effect on p70S6K T389 phosphorylation in hCaEC [5]: does not inhibit
